≈ marks a conversion by molar mass, not a printed value. Where two headings read alike, the source gives them in different places.
Columns and labels:
MOLT-3 cells = conditions: human
Orf virus (NZ2) = assay type: cell-based
murine polyomavirus = test: microbe, parasite or virus in culture; assay type: cell-based; conditions: Alphapolyomavirus muris, UC1, UC1B
[1] = system: Herpes simplex virus-1 (KOS and TK- KOS ACVr); assay type: cell-based
Vaccinia Virus (WR) = assay type: in vivo, mice; conditions: after 20 days
HSB-2 cells = conditions: human
[2] = system: vaccinia virus (Lederle strain); test: microbe, parasite or virus in culture; assay type: cell-based; conditions: Orthopoxvirus vaccinia, HEL
Cowpox virus (Brighton) = test: microbe, parasite or virus in culture; assay type: cell-based
[3] = system: Herpes simplex virus-2 (G); assay type: cell-based
HSV-1 (Kos strain) = test: microbe, parasite or virus in culture; assay type: cell-based, Herpes simplex virus type 1; conditions: Human alphaherpesvirus 1, HEL
HSV-1 (KOS) = system: HSV-1 (KOS); parameters: species or system mice; conditions: mouse, in vivo, sc
in vitro = conditions: human
SiHa cells (HPV-16) = test: Human cervical carcinoma (SiHa) xenografts in athymic nude mice; assay type: in vivo; conditions: 5 weeks intratumoral treatment
Method: (§1) Adult animals were injected subcutaneously with 5×10^6 SiHa cells, a human cervical carcinoma cell line which harbors integrated human papillomavirus (HPV-16). Once the tumors were established (approximately after 1 week), the mice were divided in several groups, the tumor size for each mouse was determined, and treatment with placebo (PBS) or the test compounds was started. The test solutions were administered intratumorally at a volume of 50 μl. Mice were treated once a day, 5 times a week for a period of 5 weeks. Every week, the tumor size for each animal was measured with a caliper in two perpendicular dimensions and tumor size was calculated by multiplying the two measured diameters.
as §1, with “s.c.” for “subcutaneously”, “intratumorally (i.t.)” for “intratumorally”

[4] = system: herpes simplex virus type 2 (HSV-2); test: microbe, parasite or virus in culture; assay type: cell-based; conditions: Human alphaherpesvirus 2, HEL, read-out: EC50 HSV-2 (G strain)
[5] = system: Vaccinia virus (Western Reserve) and recombinant viruses harboring the A314T, A684V or A314T+A684V mutations; assay type: cell-based
[6] = Decomposition in aqueous solution (sym-triazine ring opening); assay type: physicochemical; conditions: in words
Text: The first step is a reversible opening of the sym-triazine ring to the N-formylguanidine derivative which can close back to the cyclic structure. This step occurs in presence of a trialkylammonium buffer, e.g. triethylammonium hydrogenocarbonate (TEAB), triethylammonium hydroxide or triethylammonium acetate. This hydrolytic reaction is slow and reaches equilibrium within several days. It is accompanied by loss of UV-absorption which allows to determine its course.
Though this reaction is generally controlled by acidobasic catalysis, it could be eventually speeded up (or slowed down) in vivo by the action of enzymes.
The reaction course was monitored by measurement of absorption maximum decrease in UV spectrum at λmax 245 nm. For each measurement 10 μl sample of reaction mixture was diluted with water to overall volume 3 ml and absorbance value at 245 nm determined. Equilibrium was reached when no more decrease of absorbance occurred. The reaction mixture was evaporated to dryness, coevaporated with water (5×3 ml) and then with methanol (2×3 ml). The residue in water (3 ml) was applied onto a column of Dowex 50 (Na^+ form, 20 ml) and the column eluted with water. UV absorbing eluate was evaporated and lyophilized to give 105 mg (92%) of a sodium salt of 3a as a colourless amorphous material.

[7] = mouse, in vivo
[8] = system: human cervical carcinoma xenografts (HeLa, CaSki cells); test: Human cervical carcinoma xenografts (HeLa, CaSki) in athymic nude mice, FIG. 12; assay type: in vivo; conditions: 5 and 10 mg/mL doses, intratumoral
Method: as §1, with “FIGS. 12 A and B show the activity of (S)-HPMP-5-azacytosine compared to (S)-HPMPC against human papillomavirus in human cervical carcinoma xenografts in athymic nude mice. (A) Adult” for “Adult”, “HeLa” for “SiHa”, “diameters. […] Once the tumors were established (approximately after 1 week), the mice were divided in several groups, the tumor size for each mouse was determined, and treatment with placebo (PBS) or the test compounds was started. […] Every week, the tumor size for each animal was measured with a caliper in two perpendicular dimensions and tumor size was calculated by multiplying the two measured diameters.” for “diameters.”

Nc1ncn(C[C@@H](CO)OCP(=O)(O)O)c(=O)n1 [Compound 3, (S)-1-[3-hydroxy-2-(Phosphonomethoxy)propyl]-5-azacytosine]
Toxicity MCC (microscopy), MOLT-3 cells (MOLT-3 cells): 16 µg/mL
activity against Orf virus (NZ2) in PHKs (Orf virus (NZ2)): significant activity
EC50 (murine polyomavirus; read-out: antiviral activity (EC50) 2PTA2): 3.35 µg/mL (≈ 12 µM)
EC50 (murine polyomavirus; read-out: antiviral activity (EC50) LID-1): 4.98 µg/mL (≈ 17.8 µM)
EC50 (murine polyomavirus; read-out: antiviral activity (EC50) MN/RDE Toronto): 1.94 µg/mL (≈ 6.92 µM)
EC50 (murine polyomavirus; read-out: antiviral activity (EC50) PTA): 3.89 µg/mL (≈ 13.9 µM)
activity against Herpes simplex virus-1 (KOS and TK- KOS ACVr) in E6SM cell cultures [1]: significant activity
survival, Vaccinia Virus (WR) mice model (Vaccinia Virus (WR)): 100%
Toxicity MCC (microscopy), HSB-2 cells (HSB-2 cells): 16 µg/mL
EC50 ([2]; 2 h, read-out: EC50 Vaccinia (Lederle strain), Treatment from 2 h till end of experiment): 2 µg/mL (≈ 7.14 µM)
EC50 ([2]; read-out: EC50 Vaccinia (Lederle strain), Pretreatment (−16 hours)): 1.59 µg/mL (≈ 5.67 µM)
EC50 ([2]; read-out: EC50 Vaccinia (Lederle strain), Treatment 2-4 hours): 5 µg/mL (≈ 17.8 µM)
EC50 ([2]; read-out: EC50 Vaccinia (Lederle strain), Treatment 2-6 hours): 3.98 µg/mL (≈ 14.2 µM)
EC50 ([2]; read-out: EC50 Vaccinia (Lederle strain), Treatment 2-8 hours): 6.3 µg/mL (≈ 22.5 µM)
activity against Cowpox virus (Brighton) in HEL cells (Cowpox virus (Brighton)): significant activity
EC50 (Cowpox virus (Brighton); Cowpox virus, HEL, read-out: EC50 Cowpox virus Brighton): 4.72 µg/mL (≈ 16.8 µM)
activity against Herpes simplex virus-2 (G) in E6SM cell cultures [3]: significant activity
EC50 (HSV-1 (Kos strain); 2 h, read-out: EC50 HSV-1 (Kos strain), Treatment from 2 h till end of experiment): 0.16 µg/mL (≈ 0.571 µM)
EC50 (HSV-1 (Kos strain); read-out: EC50 HSV-1 (Kos strain), Pretreatment (−16 hours)): 0.25 µg/mL (≈ 0.892 µM)
EC50 (HSV-1 (Kos strain); read-out: EC50 HSV-1 (Kos strain), Treatment 2-4 hours): 1 µg/mL (≈ 3.57 µM)
EC50 (HSV-1 (Kos strain); read-out: EC50 HSV-1 (Kos strain), Treatment 2-6 hours): 0.37 µg/mL (≈ 1.32 µM)
EC50 (HSV-1 (Kos strain); read-out: EC50 HSV-1 (Kos strain), Treatment 2-8 hours): 0.32 µg/mL (≈ 1.14 µM)
survival rate, HSV-1 (KOS) mice (HSV-1 (KOS)): 100%
CC50 (in vitro): > 100 µg/mL
tumor size, SiHa xenografts (SiHa cells (HPV-16)): did not increase
EC50 [4]: 0.54 µg/mL (≈ 1.93 µM)
EC50 Vaccinia virus (Western Reserve) wild-type [5]: 1.58 µg/mL (≈ 5.64 µM)
EC50 recombinant vaccinia virus 314 + 684 [5]: 10.8 µg/mL
EC50 recombinant vaccinia virus 684 [5]: 6.88 µg/mL
EC50 recombinant vaccinia virus A314T [5]: 4.1 µg/mL
decomposition in aqueous solution [6]: slow decomposition
mean body weights of the mice [7]: normal pattern
growth of tumors, human cervical carcinoma (FIG. 12) [8]: inhibit the growth of tumors

From patent US8153787B2 (priority 2005, dated 2012)
